Each structure is given as a SMILES string. Structures can show the parent of a compound that is named as a salt. Where two headings read alike, the source gives them in different places.

One assay has as its target PI3Kδ (p110δ/p85α) (Homo sapiens (Human), UniProt O00329). Kind of assay: PI3Kδ scintillation proximity assay. The class given is biochemical. To be noted: recombinant human PI3Kδ 3.4 nM, 20 μM PIP2, 2 μM ATP, 120 min, room temperature. The source says: Example C. PI3Kδ Scintillation Proximity Assay Materials: [γ-^33P]ATP (10 mCi/mL) and Wheat Germ Agglutinin (WGA) YSi SPA Scintillation Beads was purchased from Perkin Elmer (Waltham, Mass.). Lipid kinase substrate, D-myo-Phosphatidylinositol 4,5-bisphosphate (PtdIns(4,5)P2)D (+)-sn-1,2-di-O-octanoylglyceryl, 3-O-phospho linked (PIP2), CAS 204858-53-7, was purchased from Echelon Biosciences (Salt Lake City, Utah). PI3Kδ (p110δ/p85α) Recombinant Human Protein was purchased from Eurofins (St Charles, Mo.). ATP, MgCl2, DTT, EDTA, MOPS and CHAPS were purchased from Sigma Aldrich (St. Louis, Mo.). The kinase reaction was conducted in polystyrene 384-well Greiner Bio-one white plate from Thermo Fisher Scientific in a final volume of 25 μL. Inhibitors were first diluted serially in DMSO and added to the plate wells before the addition of other reaction components. The final concentration of DMSO in the assay was 2%. The PI3Kδ assay was carried out at room temperature in 20 mM MOPS, pH 6.7, 10 mM MgCl2, 5 mM DTT and CHAPS 0.03%. Reactions were initiated by the addition of ATP, the final reaction mixture consisted of 20 μM PIP2, 2 μM ATP, 0.5 μCi [γ-^33P] ATP, 3.4 nM PI3Kδ. Reactions were incubated for 120 min and terminated by the addition of 40 μL SPA beads suspended in quench buffer: 163 mM potassium phosphate pH 7.8, 20% glycerol, 25 mM EDTA. The final concentration of SPA beads is 1.0 mg/mL. After the plate sealing, plates were shaken overnight at room temperature and centrifuged at 1500 rpm for 10 min, the radioactivity of the product was determined by scintillation counting on Topcount (PerkinElmer). IC50 determination was performed by fitting the curve of percent of the solvent control activity versus the log of the inhibitor concentration using the GraphPad Prism 6.0 software.

The target of a further assay is PI3Kγ (p110γ) (Homo sapiens (Human), UniProt P48736). Kind of assay: PI3K-γ scintillation proximity assay. The format is biochemical. To be noted: recombinant human PI3Kγ 13 nM, 20 μM PIP2, 2 μM ATP, 120 min, room temperature. An excerpt: Example B. PI3K-γ Scintillation Proximity Assay Materials: [γ-^33P]ATP (10 mCi/mL) and Wheat Germ Agglutinin (WGA) YSi SPA Scintillation Beads was purchased from Perkin Elmer (Waltham, Mass.). Lipid kinase substrate, D-myo-Phosphatidylinositol 4,5-bisphosphate (PtdIns(4,5)P2)D (+)-sn-1,2-di-O-octanoylglyceryl, 3-O-phospho linked (PIP2), CAS 204858-53-7, was purchased from Echelon Biosciences (Salt Lake City, Utah). PI3Kγ (p110γ) Recombinant Human Protein was purchased from Life technology (Grand Island, N.Y.). ATP, MgCl2, DTT, EDTA, MOPS and CHAPS were purchased from Sigma Aldrich (St. Louis, Mo.). The kinase reaction was conducted in polystyrene 384-well Greiner Bio-one white plate from Thermo Fisher Scientific in a final volume of 25 μL. Inhibitors were first diluted serially in DMSO and added to the plate wells before the addition of other reaction components. The final concentration of DMSO in the assay was 2%. The PI3Kγ assay was carried out at room temperature in 20 mM MOPS, pH 6.7, 10 mM MgCl2, 5 mM DTT and CHAPS 0.03%. Reactions were initiated by the addition of ATP, the final reaction mixture consisted of 20 μM PIP2, 2 μM ATP, 0.5 μCi [γ-^33P] ATP, 13 nM PI3Kγ. Reactions were incubated for 120 min and terminated by the addition of 40 μL SPA beads suspended in quench buffer: 163 mM potassium phosphate pH 7.8, 20% glycerol, 25 mM EDTA. The final concentration of SPA beads is 1.0 mg/mL. After the plate sealing, plates were shaken overnight at room temperature and centrifuged at 1500 rpm for 10 min, the radioactivity of the product was determined by scintillation counting on Topcount (Perkin-Elmer). IC50 determination was performed by fitting the curve of percent of the solvent control activity versus the log of the inhibitor concentration using the GraphPad Prism 6.0 software.
PI3Kγ (p110γ), sequence (P48736 whole entry): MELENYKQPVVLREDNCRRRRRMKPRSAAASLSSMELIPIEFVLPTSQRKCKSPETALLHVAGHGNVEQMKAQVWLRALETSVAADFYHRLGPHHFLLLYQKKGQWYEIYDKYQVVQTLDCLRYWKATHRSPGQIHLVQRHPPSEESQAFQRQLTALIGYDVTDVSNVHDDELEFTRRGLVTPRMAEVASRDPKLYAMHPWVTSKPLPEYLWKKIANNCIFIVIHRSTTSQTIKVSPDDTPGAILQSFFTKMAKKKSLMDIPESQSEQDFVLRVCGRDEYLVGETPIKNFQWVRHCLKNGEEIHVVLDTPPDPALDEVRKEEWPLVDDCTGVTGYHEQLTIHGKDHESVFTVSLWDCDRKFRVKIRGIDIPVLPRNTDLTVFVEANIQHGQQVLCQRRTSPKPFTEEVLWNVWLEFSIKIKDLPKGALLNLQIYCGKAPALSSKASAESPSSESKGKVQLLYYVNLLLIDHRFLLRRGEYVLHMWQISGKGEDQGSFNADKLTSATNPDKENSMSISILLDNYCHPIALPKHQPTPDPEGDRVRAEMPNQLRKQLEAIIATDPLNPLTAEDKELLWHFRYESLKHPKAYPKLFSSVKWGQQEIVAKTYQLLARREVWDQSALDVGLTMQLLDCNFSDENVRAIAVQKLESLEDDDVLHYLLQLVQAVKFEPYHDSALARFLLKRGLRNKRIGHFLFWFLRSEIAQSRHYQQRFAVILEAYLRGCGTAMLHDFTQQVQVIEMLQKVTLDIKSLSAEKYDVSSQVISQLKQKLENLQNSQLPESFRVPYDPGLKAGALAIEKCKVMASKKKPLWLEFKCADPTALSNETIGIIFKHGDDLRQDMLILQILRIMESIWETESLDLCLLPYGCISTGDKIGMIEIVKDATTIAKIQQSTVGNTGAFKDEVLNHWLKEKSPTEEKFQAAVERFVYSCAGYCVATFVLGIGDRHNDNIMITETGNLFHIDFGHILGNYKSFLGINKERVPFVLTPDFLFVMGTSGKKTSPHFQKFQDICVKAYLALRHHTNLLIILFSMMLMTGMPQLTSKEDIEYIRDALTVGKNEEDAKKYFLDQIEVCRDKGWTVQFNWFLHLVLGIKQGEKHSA

Assay [1] relates to Phosphorylated Ribosomal Protein S6 (RPS6) in THP-1 cells. Kind of assay: THP-1 RPS6 ELISA assay. The class given is cell-based, Human. The method, then: Example A. THP-1 RPS6 ELISA Assay
To measure the Phosphorylated Ribosomal Protein S6 (RPS6) in cell lysates, THP-1 cells (Human Acute Monocytic Leukemia) are purchased from ATCC (Manassas, Va.) and maintained in RPMI with 10% FBS (Gibco/Life Technologies, Carlsbad, Calif.). For the assay, THP-1 cells are serum starved overnight in RPMI, then plated in RPMI (2×10^5 cells/well in 90 μL) into 96-well flat-bottom tissue culture treated plates (Corning, Corning, N.Y.), in the presence or absence of a concentration range of test compounds. Covered plates are incubated for 2 hours at 37° C., 5% CO2 then treated with or without 10 nM MCP-1 (MYBioSource, San Diego, Calif.) for 15 minutes at 37° C., 5% CO2. Plates are centrifuged at 1600 RPM and supernatants are removed. Cells are lysed in Lysis Buffer (Cell Signaling, Danvers, Mass.) with Protease Inhibitor (Calbiochem/EMD, Germany), PMSF (Sigma, St Louis Mo.), HALTS (Thermo Fisher, Rockford, Ill.) for 30 min on wet ice. Cell lysates are frozen at −80° C. before testing. The lysates are tested in the Human/Mouse/Rat Phospho-RPS6 ELISA (R&D Systems, Inc. Minn, Minn.). The plate is measured using a microplate reader (SpectraMax M5—Molecular Devices, LLC Sunnyvale, Calif.) set to 450 nm with a wavelength correction of 540. IC50 determination is performed by fitting the curve of inhibitor percent inhibition versus the log of the inhibitor concentration using the GraphPad Prism 5.0 software.
On the technique in general: In an ELISA, binding on a coated surface is turned into a signal by an enzyme label.

[2] abbreviates: Homo sapiens, THP-1, read-out: PI3Kγ_THP1_RPS6_ELISA IC50 (nM).
Setting [3] is: Homo sapiens, THP-1, serum starved THP-1 cells, 2 hours compound, 10 nM MCP-1 for 15 minutes, Phospho-RPS6 ELISA, read-out: PI3Kγ_THP1_RPS6_ELISA IC50.

PI3Kδ (p110δ/p85α), sequence (O00329 whole entry): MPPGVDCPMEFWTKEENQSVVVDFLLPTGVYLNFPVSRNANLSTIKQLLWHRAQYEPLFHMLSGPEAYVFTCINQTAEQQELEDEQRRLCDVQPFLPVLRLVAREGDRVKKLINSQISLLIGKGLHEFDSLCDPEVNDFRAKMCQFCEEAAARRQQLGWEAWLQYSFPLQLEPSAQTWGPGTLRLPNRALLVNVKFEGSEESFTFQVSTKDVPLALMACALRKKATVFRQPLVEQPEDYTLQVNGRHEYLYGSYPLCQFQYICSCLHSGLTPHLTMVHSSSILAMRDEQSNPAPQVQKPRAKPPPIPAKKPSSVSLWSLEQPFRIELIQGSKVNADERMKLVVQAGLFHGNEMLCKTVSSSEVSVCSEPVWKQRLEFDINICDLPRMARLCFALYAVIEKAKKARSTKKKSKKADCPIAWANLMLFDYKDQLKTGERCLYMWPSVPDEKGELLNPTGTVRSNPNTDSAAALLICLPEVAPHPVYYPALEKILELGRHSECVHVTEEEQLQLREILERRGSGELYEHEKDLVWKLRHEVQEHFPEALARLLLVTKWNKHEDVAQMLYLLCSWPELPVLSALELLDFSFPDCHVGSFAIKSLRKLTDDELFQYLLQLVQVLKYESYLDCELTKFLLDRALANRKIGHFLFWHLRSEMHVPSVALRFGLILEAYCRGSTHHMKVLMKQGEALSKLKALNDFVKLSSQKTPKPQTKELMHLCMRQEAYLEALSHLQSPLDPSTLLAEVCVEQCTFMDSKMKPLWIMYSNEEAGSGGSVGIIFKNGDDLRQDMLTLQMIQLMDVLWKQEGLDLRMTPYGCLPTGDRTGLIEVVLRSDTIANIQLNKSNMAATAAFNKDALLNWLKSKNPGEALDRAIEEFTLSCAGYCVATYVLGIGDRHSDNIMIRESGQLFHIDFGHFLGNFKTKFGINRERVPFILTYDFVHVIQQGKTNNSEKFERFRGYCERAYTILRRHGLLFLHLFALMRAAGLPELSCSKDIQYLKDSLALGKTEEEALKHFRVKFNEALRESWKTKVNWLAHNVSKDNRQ
PI3Kδ (p110δ/p85α), sequence (P27986 whole entry partner): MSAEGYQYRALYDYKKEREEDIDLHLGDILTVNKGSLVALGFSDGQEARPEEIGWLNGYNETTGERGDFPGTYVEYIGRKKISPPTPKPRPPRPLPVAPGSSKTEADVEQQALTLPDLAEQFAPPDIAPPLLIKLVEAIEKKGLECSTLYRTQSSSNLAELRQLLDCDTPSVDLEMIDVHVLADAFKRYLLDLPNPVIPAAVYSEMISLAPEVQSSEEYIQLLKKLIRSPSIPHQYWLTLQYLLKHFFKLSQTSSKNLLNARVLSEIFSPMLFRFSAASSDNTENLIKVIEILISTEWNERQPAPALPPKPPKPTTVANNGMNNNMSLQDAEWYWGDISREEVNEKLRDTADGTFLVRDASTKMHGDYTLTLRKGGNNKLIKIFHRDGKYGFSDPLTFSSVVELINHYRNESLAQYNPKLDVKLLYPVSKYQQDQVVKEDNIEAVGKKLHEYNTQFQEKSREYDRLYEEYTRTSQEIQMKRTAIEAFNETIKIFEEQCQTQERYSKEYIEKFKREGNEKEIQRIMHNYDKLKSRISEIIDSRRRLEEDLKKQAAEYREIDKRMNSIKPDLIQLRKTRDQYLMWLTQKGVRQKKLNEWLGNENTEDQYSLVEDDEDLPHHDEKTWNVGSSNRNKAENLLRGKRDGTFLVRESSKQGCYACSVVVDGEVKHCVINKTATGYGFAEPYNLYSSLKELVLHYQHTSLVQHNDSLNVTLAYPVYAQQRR

In general, IC50 refers to the point on the concentration scale where inhibition reaches its midpoint. On to `Cc1[nH]c(-c2cc(-c3cc4c(c(S(C)(=O)=O)c3)C(=O)N([C@@H](C)C3CC3)C4)ccn2)nc1C(=O)NC(C)C` [Example 7a, (S)-2-(4-(2-(1-Cyclopropylethyl)-7-(methylsulfonyl)-1-oxoisoindolin-5-yl)pyridin-2-yl)-N-isopropyl-4-methyl-1H-imidazole-5-carboxamide, trifluoroacetate salt], for which the values for the half-maximal inhibitory concentration (IC50) (at PI3Kδ (p110δ/p85α); at PI3Kγ (p110γ); in assay [1] (setting [2])) were 0.1 to 0.5 µM, under 0.1 µM and under 100 nM, respectively.
Regarding `Cc1[nH]c(-c2cc(-c3cc4c(c(S(C)(=O)=O)c3)C(=O)N([C@@H](C)C3CC3)C4)ccn2)nc1C(N)=O` [Example 7q, (S)-2-(4-(2-(1-Cyclopropylethyl)-7-(methylsulfonyl)-1-oxoisoindolin-5-yl)pyridin-2-yl)-4-methyl-1H-imidazole-5-carboxamide, trifluoroacetate salt], the concentration for half-maximal inhibition (IC50) is 0.5 to 2 µM on PI3Kδ (p110δ/p85α), under 0.1 µM at PI3Kγ (p110γ) and over 1000 nM in assay [1] (setting [3]).
As for `Cc1nc(-c2cc(-c3cc4c(c(S(C)(=N)=O)c3)C(=O)N([C@@H](C)C3CC3)C4)ccn2)[nH]c1C` (single isomer, unassigned) [Example 22], the IC50 on PI3Kδ (p110δ/p85α) was 0.5 to 2 µM; at PI3Kγ (p110γ), under 0.1 µM; in assay [1] (setting [3]) it was 500 to 1000 nM.
As to `CCC(C)NC(=O)c1[nH]c(-c2cc(-c3cc4c(c(S(C)(=O)=O)c3)C(=O)N([C@@H](C)C3CC3)C4)ccn2)nc1C` (single isomer, unassigned) [Example 7l], the IC50 at PI3Kδ (p110δ/p85α) is 0.1 to 0.5 µM; at PI3Kγ (p110γ), under 0.1 µM; in assay [1] (serum starved THP-1 cells, 2 hours compound, 10 nM MCP-1 for 15 minutes, Phospho-RPS6 ELISA, read-out: PI3Kγ_THP1_RPS6_ELISA IC50), 100 to 500 nM.
On to `Cc1[nH]c(-c2cc(-c3cc4c(c(S(C)(=O)=O)c3)C(=O)N([C@@H](C)C3CC3)C4)ccn2)nc1C(=O)N(C)C(C)C` [Example 7t, (S)-2-(4-(2-(1-Cyclopropylethyl)-7-(methylsulfonyl)-1-oxoisoindolin-5-yl)pyridin-2-yl)-N-isopropyl-N,4-dimethyl-1H-imidazole-5-carboxamide, trifluoroacetate salt], for which the values for the IC50 (on PI3Kδ (p110δ/p85α); on PI3Kγ (p110γ); in assay [1] (setting [3])) were 0.5 to 2 µM, under 0.1 µM and 100 to 500 nM, respectively.
`Cc1[nH]c(-c2cc(-c3cc4c(c(S(C)(=O)=O)c3)C(=O)N([C@@H](C)C3CC3)C4)ccn2)nc1C(=O)N1CCC1` [Example 7j, (S)-5-(2-(5-(Azetidine-1-carbonyl)-4-methyl-1H-imidazol-2-yl)pyridin-4-yl)-2-(1-cyclopropylethyl)-7-(methylsulfonyl)isoindolin-1-one, trifluoroacetate salt]: the values for the IC50 (at PI3Kδ (p110δ/p85α); on PI3Kγ (p110γ); in assay [1] (setting [2])) were 0.1 to 0.5 µM, under 0.1 µM and 100 to 500 nM, respectively.
On to `Cc1cc(-c2cc(-c3cc4c(c(S(C)(=O)=O)c3)C(=O)N([C@@H](C)C3CC3)C4)cnn2)[nH]n1` [Example 10, (S)-2-(1-Cyclopropylethyl)-5-(6-(3-methyl-1H-pyrazol-5-yl)pyridazin-4-yl)-7-(methylsulfonyl)isoindolin-1-one, trifluoroacetate salt], for which the IC50 on PI3Kδ (p110δ/p85α) is over 2 µM; at PI3Kγ (p110γ), 0.1 to 0.5 µM; in assay [1] (setting [3]) it was over 1000 nM.
As to `CCNC(=O)c1nc(-c2cc(-c3cc4c(c(S(C)(=O)=O)c3)C(=O)N([C@@H](C)C3CC3)C4)ccn2)[nH]c1C` [Example 7r, (S)-2-(4-(2-(1-Cyclopropylethyl)-7-(methylsulfonyl)-1-oxoisoindolin-5-yl)pyridin-2-yl)-N-ethyl-4-methyl-1H-imidazole-5-carboxamide, trifluoroacetate salt], the concentration for half-maximal inhibition (IC50) on PI3Kδ (p110δ/p85α) was 0.5 to 2 µM; on PI3Kγ (p110γ) it was under 0.1 µM; in assay [1] (setting [3]), 100 to 500 nM.
As to `CNC(=O)c1nc(-c2cc(-c3ccc4c(c3)CN([C@@H](C)C3CC3)C4=O)ccn2)[nH]c1C` [Example 6, (S)-2-(4-(2-(1-Cyclopropylethyl)-1-oxoisoindolin-5-yl)pyridin-2-yl)-N,5-dimethyl-1H-imidazole-4-carboxamide trifluoroacetate salt], the figures for the 50% inhibitory concentration (IC50) (at PI3Kδ (p110δ/p85α); at PI3Kγ (p110γ); in assay [1] (setting [3])) were over 2 µM, under 0.1 µM and over 1000 nM, respectively.
Take `Cc1nc(-c2cc(-c3cc4c(c(C(O)CO)c3)C(=O)N([C@@H](C)C3CC3)C4)ccn2)[nH]c1C` (stereo partly drawn) [Example 18, 2-((S)-1-Cyclopropylethyl)-7-(1,2-dihydroxyethyl)-5-(2-(4,5-dimethyl-1H-imidazol-2-yl)pyridin-4-yl)isoindolin-1-one]: the concentration for half-maximal inhibition (IC50) on PI3Kδ (p110δ/p85α) is over 2 µM; on PI3Kγ (p110γ), under 0.1 µM; in assay [1] (setting [3]) it was 100 to 500 nM.
Regarding `Cc1[nH]c(-c2cc(-c3cc4c(c(S(C)(=O)=O)c3)C(=O)N([C@@H](C)C3CC3)C4)ccn2)nc1C(=O)NC1CCOC1` (mixture of isomers) [Example 7n, 2-(4-(2-((S)-1-Cyclopropylethyl)-7-(methylsulfonyl)-1-oxoisoindolin-5-yl)pyridin-2-yl)-4-methyl-N-(tetrahydrofuran-3-yl)-1H-imidazole-5-carboxamide, trifluoroacetate salt (mixture of two diastereomers)], the 50% inhibitory concentration (IC50) on PI3Kδ (p110δ/p85α) is 0.1 to 0.5 µM; on PI3Kγ (p110γ) it was under 0.1 µM; in assay [1] (setting [3]) it was 100 to 500 nM.
As for `Cc1cnc(-c2cc(-c3cc4c(c(N=S(C)(C)=O)c3)C(=O)N([C@@H](C)C3CC3)C4)ccn2)[nH]1` (single isomer, unassigned) [Example 26], the half-maximal inhibitory concentration (IC50) at PI3Kδ (p110δ/p85α) is over 2 µM; on PI3Kγ (p110γ), under 0.1 µM; in assay [1] (setting [3]), over 1000 nM.
For `Cc1[nH]c(-c2cc(-c3cc4c(c(S(C)(=O)=O)c3)C(=O)N([C@@H](C)C3CC3)C4)ccn2)nc1C(=O)NC1CC2(COC2)C1` [Example 7i, (S)-2-(4-(2-(1-Cyclopropylethyl)-7-(methylsulfonyl)-1-oxoisoindolin-5-yl)pyridin-2-yl)-4-methyl-N-(2-oxaspiro[3.3]heptan-6-yl)-1H-imidazole-5-carboxamide, trifluoroacetate salt], in that order: under 0.1 µM, under 0.1 µM and 100 to 500 nM.
